{"source": "patent US20250197376A1", "about": "“PYRAZINE AMIDE DERIVATIVES” (Novartis AG, priority 2022, published 2025)", "data": [{"system": "3D7 P. falciparum strain", "experiment": "P. falciparum 3D7 parasite proliferation assay (SYBR Green)", "type": "cell-based", "conditions": "Plasmodium falciparum, Erythrocyte; 3D7 P. falciparum infected human erythrocytes, 72 hours, SYBR Green fluorescence; read-out: Pf3D7 Activity", "description": "The following assay illustrates the invention without in any way limiting the scope of the invention. This parasite proliferation assay measures the increase in parasite DNA content using a DNA intercalating dye, SYBR Green®. 3D7 P. falciparum strain is grown in complete culturing media until parasitemia reaches 3% to 8% with O+ human erythrocytes. 20 μl of screening media is dispensed into 384 well assay plates. 50 nl of compounds of the invention (in DMSO), including antimalarial controls (mefloquine, pyrimethamine and artemisinin), are then transferred into the assay plates, as well as DMSO alone to serve as a negative control for inhibition. Then 30 μl of a suspension of a 3D7 P. falciparum infected erythrocytes in screening media is dispensed into the assay plates such that the final hematocrit is 2.5% with a final parasitemia of 0.3%. The plates are placed in a 37° C. incubator for 72 hours in a low oxygen environment containing 93% N2, 4% CO2, and 3% O2 gas mixture. 10 μl of lysis buffer (saponin, triton-X, EDTA) containing a 10× solution of SYBR Green […] in RPMI media is dispensed into the plates. The plates are lidded and kept at room temperature overnight for the lysis of the infected red blood cells. The fluorescence intensity is measured (excitation […], emission 530 nm) using the Envision™ system (Perkin Elmer). The percentage inhibition of 50%, EC50, is calculated for each compound.", "units": {"EC50": "nM"}, "values": [{"compound": "COc1cccc2[nH]c(-c3cncc(C(=O)NCC(C)(C)N)n3)cc12", "note": "[Example 30, N-(2-amino-2-methylpropyl)-6-(4-methoxy-1H-indol-2-yl)pyrazine-2-carboxamide]", "EC50": "> 100"}, {"compound": "CC(C)(N)CNC(=O)c1cncc(-c2[nH]c3ccc(OC(F)(F)F)cc3c2Cl)n1", "note": "[Example 106, N-(2-Amino-2-methylpropyl)-6-(3-chloro-5-(trifluoromethoxy)-1H-indol-2-yl)pyrazine-2-carboxamide]", "EC50": "< 10"}, {"compound": "Cc1ccc2[nH]c(-c3cncc(C(=O)NCC(C)(C)N)n3)c(C)c2c1", "note": "[Example 15, N-(2-amino-2-methylpropyl)-6-(3,5-dimethyl-1H-indol-2-yl)pyrazine-2-carboxamide]", "EC50": "10 to 100"}, {"compound": "Cc1ccc2c(C)c(-c3cncc(C(=O)NCC(C)(C)N)n3)[nH]c2c1", "note": "[Example 45, N-(2-Amino-2-methylpropyl)-6-(3,6-dimethyl-1H-indol-2-yl)pyrazine-2-carboxamide]", "EC50": "< 10"}, {"compound": "Cc1c(-c2cncc(C(=O)NCC(C)(C)N)n2)[nH]c2cc(OC(F)(F)F)ccc12", "note": "[Example 8, N-(2-amino-2-methylpropyl)-6-(3-methyl-6-(trifluoromethoxy)-1H-indol-2-yl)pyrazine-2-carboxamide]", "EC50": "< 10"}, {"compound": "CC(C)(N)CNC(=O)c1cncc(-c2cc3cc(S(F)(F)(F)(F)F)ccc3[nH]2)n1", "note": "[Example 46, N-(2-amino-2-methylpropyl)-6-(5-(pentafluoro-λ^6-sulfaneyl)-1H-indol-2-yl)pyrazine-2-carboxamide]", "EC50": "10 to 100"}, {"compound": "CC(C)(N)CNC(=O)c1cncc(-c2cc3ccnc(Cl)c3[nH]2)n1", "note": "[Example 42, N-(2-amino-2-methylpropyl)-6-(7-chloro-1H-pyrrolo[2,3-c]pyridin-2-yl)pyrazine-2-carboxamide]", "EC50": "> 100"}, {"compound": "Cc1c(-c2cncc(C(=O)NCC3(N)CCOCC3)n2)[nH]c2ccc(OC(F)(F)F)cc12", "note": "[Example 61, N-((4-aminotetrahydro-2H-pyran-4-yl)methyl)-6-(3-methyl-5-(trifluoromethoxy)-1H-indol-2-yl)pyrazine-2-carboxamide]", "EC50": "10 to 100"}, {"compound": "Cc1c(-c2cncc(C(=O)NCC(C)(C)N)n2)[nH]c2ccc(C(=O)NCC(C)(C)N)cc12", "note": "[Example 107, N-(2-amino-2-methylpropyl)-2-(6-((2-amino-2-methylpropyl)carbamoyl)pyrazin-2-yl)-3-methyl-1H-indole-5-carboxamide]", "EC50": "> 100"}, {"compound": "Cc1c(-c2cncc(C(=O)NCC(C)(C)N)n2)[nH]c2ccc(CN)cc12", "note": "[Example 71, N-(2-amino-2-methylpropyl)-6-(5-(aminomethyl)-3-methyl-1H-indol-2-yl)pyrazine-2-carboxamide]", "EC50": "> 100"}, {"compound": "CC(C)(N)CNC(=O)c1cncc(-c2cc3cc(Cl)cc(F)c3[nH]2)n1", "note": "[Example 13, N-(2-amino-2-methylpropyl)-6-(5-chloro-7-fluoro-1H-indol-2-yl)pyrazine-2-carboxamide]", "EC50": "10 to 100"}, {"compound": "N[C@H]1CC[C@H](NC(=O)c2cncc(-c3cc4cc(OC(F)(F)F)ccc4[nH]3)n2)CC1", "note": "[Example 67, N-((1r,4r)-4-aminocyclohexyl)-6-(5-(trifluoromethoxy)-1H-indol-2-yl)pyrazine-2-carboxamide]", "EC50": "> 100"}, {"compound": "COc1ccc2[nH]c(-c3cncc(C(=O)NCC(C)(C)N)n3)cc2c1", "note": "[Example 32, N-(2-amino-2-methylpropyl)-6-(5-methoxy-1H-indol-2-yl)pyrazine-2-carboxamide]", "EC50": "> 100"}, {"compound": "Cc1c(-c2cncc(C(=O)NCC(C)(C)N)n2)[nH]c2c1CCCC2", "note": "[Example 51, N-(2-amino-2-methylpropyl)-6-(3-methyl-4,5,6,7-tetrahydro-1H-indol-2-yl)pyrazine-2-carboxamide]", "EC50": "10 to 100"}, {"compound": "CC(C)(N)CNC(=O)c1cncc(-c2cc3ccncc3[nH]2)n1", "note": "[Example 43, N-(2-amino-2-methylpropyl)-6-(1H-pyrrolo[2,3-c]pyridin-2-yl)pyrazine-2-carboxamide]", "EC50": "> 100"}, {"compound": "Cc1c(-c2cncc(C(=O)NCCCN)n2)[nH]c2ccccc12", "note": "[Example 90, N-(3-aminopropyl)-6-(3-methyl-1H-indol-2-yl)pyrazine-2-carboxamide]", "EC50": "> 100"}, {"compound": "COc1cc2[nH]c(-c3cncc(C(=O)NCC(C)(C)N)n3)cc2cc1F", "note": "[Example 36, N-(2-amino-2-methylpropyl)-6-(5-fluoro-6-methoxy-1H-indol-2-yl)pyrazine-2-carboxamide]", "EC50": "> 100"}, {"compound": "CC(C)(N)CNC(=O)c1cncc(-c2cc3cc(OCc4ccccc4)ccc3[nH]2)n1", "note": "[Example 22, N-(2-amino-2-methylpropyl)-6-(5-(benzyloxy)-1H-indol-2-yl)pyrazine-2-carboxamide]", "EC50": "10 to 100"}, {"compound": "CC(C)c1c(-c2cncc(C(=O)NCC(C)(C)N)n2)[nH]c2ccccc12", "note": "[Example 52, N-(2-amino-2-methylpropyl)-6-(3-isopropyl-1H-indol-2-yl)pyrazine-2-carboxamide]", "EC50": "10 to 100"}, {"compound": "CC(C)(N)CNC(=O)c1cncc(-c2cc3ccc(Cl)c(F)c3[nH]2)n1", "note": "[Example 11, N-(2-amino-2-methylpropyl)-6-(6-chloro-7-fluoro-1H-indol-2-yl)pyrazine-2-carboxamide]", "EC50": "10 to 100"}, {"compound": "CCOC(=O)c1cc2[nH]c(-c3cncc(C(=O)NCC(C)(C)N)n3)cc2s1", "note": "[Example 53, Ethyl 5-(6-((2-amino-2-methylpropyl)carbamoyl)pyrazin-2-yl)-4H-thieno[3,2-b]pyrrole-2-carboxylate]", "EC50": "10 to 100"}, {"compound": "Cc1c(-c2cncc(C(=O)NCC3(N)CCOCC3)n2)[nH]c2cc(Cl)c(F)cc12", "note": "[Example 80, N-((4-aminotetrahydro-2H-pyran-4-yl)methyl)-6-(6-chloro-5-fluoro-3-methyl-1H-indol-2-yl)pyrazine-2-carboxamide]", "EC50": "10 to 100"}, {"compound": "COc1cccc2cc(-c3cncc(C(=O)NCC(C)(C)N)n3)[nH]c12", "note": "[Example 44, N-(2-amino-2-methylpropyl)-6-(7-methoxy-1H-indol-2-yl)pyrazine-2-carboxamide]", "EC50": "> 100"}, {"compound": "Cc1c(-c2cncc(C(=O)N[C@@H]3CCCC[C@H]3N)n2)[nH]c2ccccc12", "note": "(racemic) [Example 101, (rac)-N-((1r,2r)-2-aminocyclohexyl)-6-(3-methyl-1H-indol-2-yl)pyrazine-2-carboxamide]", "EC50": "> 100"}, {"compound": "CC(C)(N)CNC(=O)c1cncc(-c2cc3sc(C(N)=O)cc3[nH]2)n1", "note": "[Example 108, 5-(6-((2-amino-2-methylpropyl)carbamoyl)pyrazin-2-yl)-4H-thieno[3,2-b]pyrrole-2-carboxamide]", "EC50": "> 100"}, {"compound": "CC(C)(N)CNC(=O)c1cncc(-c2cc3cc(F)c(Cl)cc3[nH]2)n1", "note": "[Example 14, N-(2-amino-2-methylpropyl)-6-(6-chloro-5-fluoro-1H-indol-2-yl)pyrazine-2-carboxamide]", "EC50": "10 to 100"}, {"compound": "Cc1c(-c2cncc(C(=O)NC3CCNCC3)n2)[nH]c2ccccc12", "note": "[Example 93, 6-(3-methyl-1H-indol-2-yl)-N-(piperidin-4-yl)pyrazine-2-carboxamide]", "EC50": "> 100"}, {"compound": "Cc1c(-c2cncc(C(=O)NCCC(C)(C)N)n2)[nH]c2ccccc12", "note": "[Example 85, N-(3-amino-3-methylbutyl)-6-(3-methyl-1H-indol-2-yl)pyrazine-2-carboxamide]", "EC50": "10 to 100"}, {"compound": "CC(C)(N)CNC(=O)c1cncc(-c2cc3ccccc3[nH]2)n1", "note": "[Example 35, N-(2-amino-2-methylpropyl)-6-(1H-indol-2-yl)pyrazine-2-carboxamide]", "EC50": "> 100"}, {"compound": "Cc1c(-c2cncc(C(=O)NC3CCC(N)C3)n2)[nH]c2ccccc12", "note": "(centres unmarked) [Example 92, N-(3-aminocyclopentyl)-6-(3-methyl-1H-indol-2-yl)pyrazine-2-carboxamide]", "EC50": "> 100"}, {"compound": "Cc1c(-c2cncc(C(=O)N(C)CC(C)(C)N)n2)[nH]c2ccccc12", "note": "[Example 66, N-(2-amino-2-methylpropyl)-N-methyl-6-(3-methyl-1H-indol-2-yl)pyrazine-2-carboxamide]", "EC50": "> 100"}, {"compound": "CC(C)(N)CNC(=O)c1cncc(-c2cc3cc(F)c(F)cc3[nH]2)n1", "note": "[Example 20, N-(2-amino-2-methylpropyl)-6-(5,6-difluoro-1H-indol-2-yl)pyrazine-2-carboxamide]", "EC50": "10 to 100"}]}]}
